Test results published in ChEMBL document CHEMBL1156829 (Proc Natl Acad Sci U S A, 2008).

Key:
[1] = NOVARTIS: Cytotoxicity against human hepatocellular carcinoma cell line (Huh7); type: toxicity, cell-based, Huh-7; details: Huh7 cells (hepatocellular carcinoma cell line)
Plasmodium falciparum [2] = experiment: NOVARTIS: Inhibition of Plasmodium falciparum 3D7 (drug-susceptible) proliferation in erythrocyte-based infection assay; type: functional, organism-based; details: Plasmodium falciparum, 3D7
Plasmodium falciparum [3] = experiment: NOVARTIS: Inhibition of Plasmodium falciparum W2 (drug-resistant) proliferation in erythrocyte-based infection assay; type: functional, organism-based; details: Plasmodium falciparum, W2; read-out: EC50

| Compound | CC50 [1] [µM] | EC50 (Plasmodium falciparum [2]) [µM] | EC50 (Plasmodium falciparum [3]) [µM] |
| --- | --- | --- | --- |
| CCOC(=O)C1=C(C)NC2=C(C(=O)CC(c3ccccc3)C2)C1c1ccccc1Cl (centres undefined) | > 100 | 0.251 | 0.0349 |
| O=C(Nc1cccnc1)c1cc(-c2cccnc2)nc2ccc(Br)cc12 | > 100 | > 12.5 | 2.14 |
| COc1cc(C=NNc2nc3nonc3nc2Nc2ccc(Cl)cc2)ccc1O | > 10 | > 1.25 | 1.03 |
| Clc1ccc(-c2nc3cc(Cl)cnc3[nH]2)cc1 | > 8.52 | 0.565 | > 1.25 |
| CCOc1ccc(N(C(=O)C2COc3ccccc3O2)C(C(=O)NC2CCCCC2)c2cn(C)nc2C)cc1 (centres undefined) | > 100 | 0.443 | 0.614 |
| O=C(/C=C/c1ccccc1)Nc1ccccc1C(=O)Nc1ccc(-c2nc3ccc(NC(=O)c4ccccc4NC(=O)/C=C/c4ccccc4)cc3[nH]2)cc1 | > 13.3 | 0.347 | 0.382 |
| Cc1ccn2c(NC(C)(C)CC(C)(C)C)c(-c3ccccc3OC(=O)c3ccccc3C)nc2c1 | > 10 | 0.757 | < 0.00903 |
| COC(=O)c1ccc(C=NNc2cc(C)nc3ccc(OC)cc23)cc1 | 16.5 | 0.204 | 0.537 |
| CCCC(=O)NC(C(=O)N1CCN(C(c2ccccc2)c2ccccc2)CC1)C(C)C (centres undefined) | > 10 | 0.387 | 0.0109 |
| CN(C)c1ccc(N/C=C/C(=O)C(C)(C)C)cc1 | > 10 | 1.45 | 1.58 |
| CCOc1ccc(NCc2ccc(O)c3ncccc23)cc1 | > 55.6 | 7.61 | > 4.37 |
| Cc1ccc(N2C(=O)C3C(C2=O)C2(c4ccccc4)C(=O)C3(c3ccccc3)C(c3ccccc3)=C2c2ccccc2)cc1[N+](=O)[O-] (centres undefined) | > 100 | 0.822 | > 12.5 |
| COc1cc(NC(C)CCCN(Cc2ccc(OC)c(OC)c2)C(=O)c2ccccc2C)c2ncccc2c1 (centres undefined) | > 12.2 | 0.867 | 0.831 |
| CCC(C)NCC(O)(c1ccc(Cl)cc1)c1ccc(Cl)cc1 (centres undefined) | 46.3 | 0.639 | 0.184 |
| CCOc1ccc(NC(=O)c2ccc(F)c(S(=O)(=O)NC3CCCCCC3)c2)cc1 | 54.8 | 1.35 | 0.135 |
| O=C(C=Cc1ccccc1)NNC(=O)c1cccnc1 | > 100 | > 12.5 | 1.01 |
| CCOC(=O)c1ccc(OCC2c3cc(OC)c(OC)cc3CCN2C(=O)c2ccc([N+](=O)[O-])cc2)cc1 (centres undefined) | > 100 | > 12.5 | 1.35 |

| Compound | CC50 [1] [µM] | EC50 (Plasmodium falciparum [2]) [µM] | EC50 (Plasmodium falciparum [3]) [µM] |
| --- | --- | --- | --- |
| CCCCNC(=O)C(c1cccc(OC)c1)N1C(=O)c2cc(OCCc3cccc(OC)c3)ccc2NC(=O)C1CO (centres undefined) | > 10 | 0.11 | 0.0429 |
| O=C(CC(=NNc1nc(NN=C(CC(=O)C(F)(F)F)C(F)(F)F)nc(N(c2ccccc2)c2ccccc2)n1)C(F)(F)F)C(F)(F)F | > 10 | 0.67 | 1.01 |
| COc1cc(C=C(C#N)c2nc3ccccc3[nH]2)ccc1OCc1ccc(Cl)cc1 | > 100 | 0.763 | 1.57 |
| O=C1C(=Cc2ccccc2)Oc2c1ccc(O)c2CN1CCCCC1 | > 100 | 1.42 | 0.091 |
| Cc1cc(N2CCN(Cc3ccc(F)cc3)CC2)n2c(nc3ccccc32)c1C#N | > 100 | 0.625 | 0.53 |
| O=C(Nc1ccc(N2CCCCC2)cc1)N1CCc2nc[nH]c2C1c1ccc(Cl)cc1 (centres undefined) | > 5.04 | 0.64 | 0.239 |
| Cc1ccc(C)c(NC(=O)c2c(-c3c(Cl)cccc3Cl)noc2C)c1 | > 70.7 | 0.218 | 0.443 |
| O=C(c1cccc(Cl)c1)N1CCN(c2ccc([N+](=O)[O-])c(NC3CC3)c2)CC1 | > 100 | 0.552 | 0.34 |
| COC(=O)c1cn2c(=O)c3ccccc3nc2c2ccccc12 | > 10 | > 0.385 | > 1.25 |
| CCC(c1nc2ccccc2c(=O)n1-c1cccc(C)c1)N(Cc1ccccc1)C(=O)Nc1c(C(C)C)cccc1C(C)C (centres undefined) | > 100 | 0.395 | 0.486 |
| CCNC(=O)C1CCN(c2cccc3c2C(=O)N(C2CCCCCCC2)C3=O)CC1 | > 100 | 1.75 | 1.31 |
| COc1ccc(-c2cc(C(F)(F)F)n3ncc(C(=O)Nc4cc(C)ccc4O)c3n2)cc1OC | > 100 | 3.35 | 2.13 |
| Cc1ccn2c(NC(C)(C)CC(C)(C)C)c(-c3ccccc3OC(=O)c3ccc(Cl)cc3Cl)nc2c1 | > 10 | 0.728 | < 0.00881 |
| CC(C)(C)OC(=O)N1CCC(c2c(C(=O)Nc3cccc(C(F)(F)F)c3)cnn2-c2ccc(F)cc2F)CC1 | > 100 | 1.27 | 0.99 |
| O=C1CSc2ccccc2N1 | > 100 | > 10.7 | 1.08 |
| CCCCCCCCn1c(C)[n+](CC)c2cc(C(=O)OCC)ccc21 | > 100 | 0.686 | 0.504 |
